Among the data in ChEMBL document CHEMBL4229326, “Modulators of 14-3-3 Protein-Protein Interactions” (J Med Chem, 2018) are Kd, IC50 and Activity values, retold here.

Structures are written as SMILES. pIC50, pKd: −log10 of the molar value.

Assay [1] addresses T1, 14-3-3 protein zeta/delta (Homo sapiens, UniProt P63104).
T1 sequence (P63104 whole entry): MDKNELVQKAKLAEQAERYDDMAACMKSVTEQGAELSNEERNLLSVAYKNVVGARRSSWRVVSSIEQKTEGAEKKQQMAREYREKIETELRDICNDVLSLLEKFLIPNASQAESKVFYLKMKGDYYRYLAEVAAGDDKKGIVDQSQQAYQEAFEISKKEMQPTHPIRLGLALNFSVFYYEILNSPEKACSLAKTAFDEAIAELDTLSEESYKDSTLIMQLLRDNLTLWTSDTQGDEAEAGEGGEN
The experiment in a line: Binding affinity to recombinant human His-tagged 14-3-3zeta expressed in Escherichia coli K12 by ITC method. For orientation: ITC needs no label: the signal is the heat of the interaction.

The target of assay [2] is T1, 14-3-3 protein zeta/delta. Description: Binding affinity to human full length 14-3-3zeta by fluorescence polarization assay.
Assay [3] deals with T2, 14-3-3 protein sigma (Homo sapiens, UniProt P31947).
T2 sequence (P31947 whole entry): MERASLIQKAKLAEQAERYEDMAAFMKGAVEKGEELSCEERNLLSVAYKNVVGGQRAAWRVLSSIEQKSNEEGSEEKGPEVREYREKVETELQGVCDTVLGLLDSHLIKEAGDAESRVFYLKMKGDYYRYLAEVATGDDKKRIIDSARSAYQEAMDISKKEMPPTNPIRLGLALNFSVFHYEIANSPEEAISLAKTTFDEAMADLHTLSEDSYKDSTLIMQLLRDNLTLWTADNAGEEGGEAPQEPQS
Description: Inhibition of TMR-GG-RLSHpSSLPG-NH2 binding to recombinant human GST-tagged 14-3-3-sigma preincubated for 30 mins followed by TMR-GG-RLSHpSSLPG-NH2 addition and measured after 60 mins by fluorescence polarization assay.

Assay [4] deals with T3, 14-3-3 protein gamma (Homo sapiens, UniProt P61981).
T3 sequence (P61981 whole entry): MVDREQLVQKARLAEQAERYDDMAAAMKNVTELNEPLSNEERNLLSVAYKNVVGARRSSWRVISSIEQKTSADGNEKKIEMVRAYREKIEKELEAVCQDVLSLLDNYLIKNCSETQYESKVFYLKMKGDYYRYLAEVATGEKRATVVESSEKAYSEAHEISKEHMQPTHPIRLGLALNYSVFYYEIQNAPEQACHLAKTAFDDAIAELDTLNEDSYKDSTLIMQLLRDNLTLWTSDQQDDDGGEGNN
The experiment in a line: Binding affinity to GST-tagged 14-3-3-gamma (unknown origin) expressed in Escherichia coli BL21(DE3) assessed as inhibition of interaction with PRAS40 in African green monkey COS7 cells preincubated with protein followed by cell addition by ELISA. A general note: ELISA stands for enzyme-linked immunosorbent assay.

For assay [5], the target named is Potassium channel subfamily K member 9 (Homo sapiens) (UniProt Q9NPC2). The experiment in a line: Stabilization of human HA-tagged TASK-3 interaction with 14-3-3 in Xenopus laevis oocytes assessed as increase of TASK-3 expression in plasma membrane at 10 uM by antibody-based luminometric assay relative to control. It is filed as cell-based.
Assay [6] has as its system DG-75. Description: Growth inhibition of human DG75 cells after 48 hrs by trypan blue exclusion method. It is filed as functional, cell-based. The conditions noted are these: DG-75, 48 h.

Potassium channel subfamily K member 9 (Homo sapiens), sequence (Q9NPC2 whole entry): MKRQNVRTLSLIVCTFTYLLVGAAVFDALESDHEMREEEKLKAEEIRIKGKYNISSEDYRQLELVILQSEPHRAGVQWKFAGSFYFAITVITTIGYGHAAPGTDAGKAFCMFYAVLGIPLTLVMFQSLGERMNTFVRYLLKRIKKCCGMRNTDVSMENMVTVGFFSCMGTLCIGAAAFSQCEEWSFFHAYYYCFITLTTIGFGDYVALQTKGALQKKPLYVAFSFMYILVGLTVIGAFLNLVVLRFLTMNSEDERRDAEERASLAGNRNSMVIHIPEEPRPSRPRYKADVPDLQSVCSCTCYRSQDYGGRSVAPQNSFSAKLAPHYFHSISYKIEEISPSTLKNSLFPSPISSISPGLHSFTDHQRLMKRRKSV

Regarding `COC[C@H]1CC[C@@H]2/C1=C\[C@]1(C)C(=C([C@H](C)COC(C)=O)CC1OCc1ccccc1/C=N/OC[C@@H](NC(=O)[C@H](CC(=O)O)NC(=O)[C@H](Cc1ccc(O)cc1)NC(=O)[C@H](CO)NC(=O)[C@H](CCC(N)=O)NC(=O)CNS(=O)(=O)c1cccc3c(N(C)C)cccc13)C(C)C)[C@@H](O)[C@H](O)[C@@H]2C` (stereo not given in full), in assay [1], the negative-log Kd (pKd) (as a rule, the negative decadic logarithm of the Kd, by convention in mol/L) is 6.43.

With `CC(C)C[C@H](NC(=O)[C@H](CC(=O)O)NC(=O)[C@]1(C)CCCCCCCCCCCC[C@](C)(NC(=O)CNC(=O)[C@@H](N)CCC(N)=O)C(=O)N[C@@H](CC(C)C)C(=O)N[C@@H](CC(=O)O)C(=O)N[C@@H](C)C(=O)N1)C(=O)N[C@@H](C)C(=O)N[C@@H](CO)C(=O)O`, the pKd in assay [2] was 7.39.

As for `[N-]=[N+]=Nc1ccc(C(=O)NCC(=O)N[C@@H](COP(=O)(O)O)C(=O)NCCc2ccc(O)cc2)cc1`, in assay [3], the pIC50 (usually the IC50 on a negative log10 scale, so that one unit is a factor of ten) was 5.44 to 5.59.

For the compound `CC(C)=CC(=O)N[C@@H](COP(=O)(O)O)C(=O)NCc1ccc2c(c1)OCO2`, the pIC50 in assay [3] is 5.44 to 5.59.

On to `Cc1nc(/N=N/c2ccc(C(=O)O)cc2)c(COP(=O)(O)O)c(C=O)c1O`, for which the negative logarithm of the IC50 (pIC50) in assay [4] was 4.79.

As to `O=C(CNC(=O)c1ccc(CCl)cc1)N[C@@H](COP(=O)(O)O)C(=O)NCCc1ccc(O)cc1`, the pIC50 in assay [3] was 5.44 to 5.59.

With `O=C(CNC(=O)c1ccc(CCl)cc1)N[C@@H](COP(=O)(O)O)C(=O)NCc1ccc2c(c1)OCO2`, the negative logarithm of the IC50 (pIC50) in assay [3] is 5.44 to 5.59.

For `COC[C@H]1CC[C@@H]2/C1=C\[C@]1(C)C(=C(C(C)C)[C@@H]3CCO[C@@H]31)[C@@H](O[C@H]1C[C@@H]3COC(C)(C)O[C@H]3[C@H](O)[C@H]1O)[C@H](O)[C@@H]2C`, the Activity in assay [5] is 45%.

With `CN(CCCCCl)P(=O)(OCc1ccc([N+](=O)[O-])o1)C(F)(F)C[C@H](NC(=O)CNC(=O)c1ccc(N)cc1)C(=O)NCCc1ccc(O)cc1` (stereo not given in full), the negative-log IC50 (pIC50) in assay [6] is 5.30.

`CC(C)=CC(=O)N[C@@H](COP(=O)(O)O)C(=O)NCCc1ccc(O)cc1`: in assay [3], the pIC50 is 5.44 to 5.59.
